What all share (type): functional
The test system of one assay is Escherichia coli. Nature of the assay: Compound was evaluated for minimal inhibitory concentration against Escherichia coli.
Assay [1] has as its system Pseudomonas aeruginosa. Nature of the assay: Compound was evaluated for minimal inhibitory concentration against Pseudomonas aeruginosa.
Assay [2] has as its system Serratia liquefaciens. Nature of the assay: Compound was evaluated for minimal inhibitory concentration against Serratia liquefaciens.
In another assay the test system is Staphylococcus aureus. In words: Compound was evaluated for minimal inhibitory concentration against Staphylococcus aureus.
The next assay relates to Listeria monocytogenes. Nature of the assay: Compound was evaluated for minimal inhibitory concentration against Listeria monocytogenes.
The test system of assay [3] is Serratia liquefaciens. In words: Compound was evaluated for minimal inhibitory concentration against Serratia liquefaciens; Growth delayed by concentrations >= 100 ug/ml.
For assay [4], the system named is Pseudomonas aeruginosa. In words: Compound was evaluated for minimal inhibitory concentration against Pseudomonas aeruginosa; Growth delayed by concentrations >= 50 ug/ml and almost totally inhibited by 500 ug/ml.
The test system of assay [5] is Serratia liquefaciens. Nature of the assay: Compound was evaluated for minimal inhibitory concentration against Serratia liquefaciens; Growth delayed by concentrations >= 50 ug/ml and almost totally inhibited by 500 ug/ml.

Converted amounts (≈) assume the structure as drawn. A value given as a limit tells only on which side of the number the result lay.

The term MIC denotes the lowest concentration found to suppress growth. A lower MIC goes with greater potency.

`O=C(NCCCCNCCCNC(=O)c1cc(Br)c[nH]1)c1cc(Br)c[nH]1`: the MIC against Escherichia coli is 250 µg/mL (≈ 511 µM); in the assay on Pseudomonas aeruginosa [1], above 500 µg/mL; with Serratia liquefaciens [2], above 500 µg/mL; against Staphylococcus aureus, 100 µg/mL (≈ 204 µM); in the assay on Listeria monocytogenes it was 250 µg/mL (≈ 511 µM).

For `O=C(NCCCNCCCNC(=O)c1cc(Br)c(Br)[nH]1)c1cc(Br)c(Br)[nH]1`, the MIC in the assay on Escherichia coli was 50 µg/mL (≈ 79 µM); in the assay on Pseudomonas aeruginosa [1] it was 100 µg/mL (≈ 158 µM); in the assay on Serratia liquefaciens [3], above 500 µg/mL; with Staphylococcus aureus, 10 µg/mL (≈ 15.8 µM); with Listeria monocytogenes, 10 µg/mL (≈ 15.8 µM).

For the molecule `O=C(NCCNCCNCCNC(=O)c1cc(Br)c(Br)[nH]1)c1cc(Br)c(Br)[nH]1`, the MIC was 100 µg/mL (≈ 154 µM) in the assay with Escherichia coli; above 500 µg/mL against Pseudomonas aeruginosa [4]; above 500 µg/mL with Serratia liquefaciens [5]; 50 µg/mL (≈ 77.2 µM) against Staphylococcus aureus; 50 µg/mL (≈ 77.2 µM) in the assay on Listeria monocytogenes.

With `O=C(NCCCCNCCCNC(=O)c1cc(Br)c(Br)[nH]1)c1cc(Br)c(Br)[nH]1`, the MIC is 50 µg/mL (≈ 77.3 µM) in the assay with Escherichia coli; 250 µg/mL (≈ 386 µM) in the assay with Pseudomonas aeruginosa [1]; above 500 µg/mL against Serratia liquefaciens [2]; 5 µg/mL (≈ 7.73 µM) against Staphylococcus aureus; 5 µg/mL (≈ 7.73 µM) in the assay on Listeria monocytogenes.

The values above are taken from ChEMBL document CHEMBL1129830, “A convenient synthesis of pseudoceratidine and three analogs for biological evaluation” (1997).
